This passage reports Ki results from patent US7019019B2, “Matriptase inhibitors and methods of use” (Dendreon Corporation, priority 2002, dated 2006).

Holding throughout (type): biochemical
In assay [1] the target is T1, (Homo sapiens, UniProt Q9UL52).
T1 sequence (Q9UL52 192-423): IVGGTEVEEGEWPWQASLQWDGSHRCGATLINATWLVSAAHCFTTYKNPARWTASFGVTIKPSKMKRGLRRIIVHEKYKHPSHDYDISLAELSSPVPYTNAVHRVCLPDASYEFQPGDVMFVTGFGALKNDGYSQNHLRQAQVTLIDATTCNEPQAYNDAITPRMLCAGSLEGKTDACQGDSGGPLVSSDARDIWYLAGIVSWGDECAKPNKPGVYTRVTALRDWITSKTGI
As to the kind of experiment: In vitro enzyme assay for specificity: Endothelin 1.

The next assay addresses α-thrombin (Homo sapiens, UniProt P00734). Put plainly: Thrombin (fIIa) chromogenic assay (Pefachrome t-PA). The method, then: (§1) The ability of compounds to act as a selective inhibitor of matriptase activity was assessed by determining the concentration of test-compound which inhibited the activity of matriptase by 50%, (IC50) as described in Example A, and comparing IC50 value for matriptase to that determined for all or some of the following serine proteases: thrombin, recombinant tissue plasminogen activator (rt-PA), plasmin, activated protein C, chymotrypsin, factor Xa and trypsin.
(§2) The buffer used for all assays was HBSA (10 mM HEPES, pH 7.5, 150 mM sodium chloride, 0.1% bovine serum albumin).
(§3) The assay for IC50 determinations was conducted by combining in appropriate wells of a Corning microtiter plate, 50 microliters of HBSA, 50 microliters of the test compound at a specified concentration (covering a broad concentration range) diluted in HBSA (or HBSA alone for V0 (uninhibited velocity) measurement), and 50 microliters of the enzyme diluted in HBSA. Following a 30 minute incubation at ambient temperature, 50 microliters of the substrate at the concentrations specified below were added to the wells, yielding a final total volume of 200 microliters. The initial velocity of chromogenic substrate hydrolysis was measured by the change in absorbance at 405 nm using a Thermo Max® Kinetic Microplate Reader over a 5 minute period in which less than 5% of the added substrate was utilized. The concentration of added inhibitor which caused a 50% decrease in the initial rate of hydrolysis was defined as the IC50 value.
Enzyme activity was determined using the chromogenic substrate, Pefachrome t-PA (CH3SO2-D-hexahydrotyrosine-glycyl-L-Arginine-p-nitroaniline, obtained from Pentapharm Ltd.). The substrate was reconstituted in deionized water prior to use.
The initial velocity of Pefachrome t-PA hydrolysis was measured by the change in absorbance at 405 nm using a Thermo Max® Kinetic Microplate Reader over a 5 minute period in which less than 5% of the added substrate was utilized. The concentration of added inhibitor which caused a 50% decrease in the initial rate of hydrolysis was defined as the IC50 value.

The next assay addresses T2, Factor Xa (Homo sapiens, UniProt P00742).
T2 construct: purchased Enzyme Research Laboratories, Inc. (South Bend, Ind.)
Put plainly: Factor Xa chromogenic assay (S-2765). To be noted: read-out: Ki FXa. The method, then:
as §1, §2
as §3, with “The concentration of added inhibitor which caused a 50% decrease in the initial rate of hydrolysis was defined as the IC50 value.” left out
Factor Xa catalytic activity was determined using the chromogenic substrate S-2765 (N-benzyloxycarbonyl-D-arginine-L-glycine-L-arginine-p-nitro aniline), obtained from DiaPharma Group (Franklin, Ohio). All substrates were reconstituted in deionized water prior to use. […] Purified human Factor X was obtained from Enzyme Research Laboratories, Inc. (South Bend, Ind.) and Factor Xa (FXa) was activated and prepared from it as described [Bock, P. E., Craig, P. A., Olson, S. T., and Singh, P. Arch. Biochem. Biophys. 273:375-388 (1989)]. The enzyme was diluted into HBSA prior to assay in which the final concentration was 0.25 nM.

The target of a further assay is T3, Matriptase (Homo sapiens, UniProt Q9Y5Y6).
T3 sequence (Q9Y5Y6 1-855 C731S): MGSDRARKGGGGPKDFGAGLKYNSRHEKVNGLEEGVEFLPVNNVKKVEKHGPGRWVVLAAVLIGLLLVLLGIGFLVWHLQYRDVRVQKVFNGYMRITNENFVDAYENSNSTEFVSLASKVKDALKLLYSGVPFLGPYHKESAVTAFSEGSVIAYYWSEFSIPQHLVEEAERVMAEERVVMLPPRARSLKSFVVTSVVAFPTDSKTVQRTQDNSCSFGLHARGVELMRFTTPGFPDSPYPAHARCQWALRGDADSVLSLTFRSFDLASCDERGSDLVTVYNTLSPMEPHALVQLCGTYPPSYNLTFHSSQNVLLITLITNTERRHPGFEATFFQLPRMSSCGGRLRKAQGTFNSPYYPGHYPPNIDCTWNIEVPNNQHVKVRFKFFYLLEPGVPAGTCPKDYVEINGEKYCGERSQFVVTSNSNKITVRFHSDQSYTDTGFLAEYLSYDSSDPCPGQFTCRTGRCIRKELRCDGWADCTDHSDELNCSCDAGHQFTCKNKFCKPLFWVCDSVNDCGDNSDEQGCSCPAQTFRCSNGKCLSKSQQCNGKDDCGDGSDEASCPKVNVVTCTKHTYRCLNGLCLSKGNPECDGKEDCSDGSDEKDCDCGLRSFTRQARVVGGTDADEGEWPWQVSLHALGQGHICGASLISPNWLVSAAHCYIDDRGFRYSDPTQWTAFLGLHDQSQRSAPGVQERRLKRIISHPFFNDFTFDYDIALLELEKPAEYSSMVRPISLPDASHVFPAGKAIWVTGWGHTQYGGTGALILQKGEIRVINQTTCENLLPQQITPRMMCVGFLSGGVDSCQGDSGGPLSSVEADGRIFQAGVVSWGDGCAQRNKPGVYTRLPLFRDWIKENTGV
As to the kind of experiment: Amidolytic assay for inhibition of serine protease activity of matriptase or MTSP1.

Assay [2] addresses T4, (Homo sapiens, UniProt Q9BYE2).
T4 sequence (Q9BYE2 326-586): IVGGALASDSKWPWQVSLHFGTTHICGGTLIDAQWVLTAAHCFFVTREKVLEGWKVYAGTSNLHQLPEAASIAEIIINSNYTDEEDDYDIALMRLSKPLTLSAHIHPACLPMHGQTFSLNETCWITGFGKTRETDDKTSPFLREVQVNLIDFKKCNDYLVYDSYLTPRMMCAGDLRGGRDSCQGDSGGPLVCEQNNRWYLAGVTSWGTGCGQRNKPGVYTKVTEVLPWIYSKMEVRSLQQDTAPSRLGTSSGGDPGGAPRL
Put plainly: In vitro enzyme assay for specificity: Endothelin 2.

The target in another assay is plasmin (Homo sapiens, UniProt P00747). As to the kind of experiment: Plasmin chromogenic assay (S-2366). The method, then: as §1, §2, §3
Sequence of plasmin (P00747 581-810 limits assumed): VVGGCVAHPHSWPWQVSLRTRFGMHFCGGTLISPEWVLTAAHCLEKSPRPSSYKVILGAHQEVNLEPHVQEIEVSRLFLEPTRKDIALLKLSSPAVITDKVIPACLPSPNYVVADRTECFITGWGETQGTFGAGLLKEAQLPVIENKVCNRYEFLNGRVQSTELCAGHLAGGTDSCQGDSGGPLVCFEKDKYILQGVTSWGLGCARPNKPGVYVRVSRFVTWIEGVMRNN
Sequence of plasmin (P00747 97-580 partner limits assumed): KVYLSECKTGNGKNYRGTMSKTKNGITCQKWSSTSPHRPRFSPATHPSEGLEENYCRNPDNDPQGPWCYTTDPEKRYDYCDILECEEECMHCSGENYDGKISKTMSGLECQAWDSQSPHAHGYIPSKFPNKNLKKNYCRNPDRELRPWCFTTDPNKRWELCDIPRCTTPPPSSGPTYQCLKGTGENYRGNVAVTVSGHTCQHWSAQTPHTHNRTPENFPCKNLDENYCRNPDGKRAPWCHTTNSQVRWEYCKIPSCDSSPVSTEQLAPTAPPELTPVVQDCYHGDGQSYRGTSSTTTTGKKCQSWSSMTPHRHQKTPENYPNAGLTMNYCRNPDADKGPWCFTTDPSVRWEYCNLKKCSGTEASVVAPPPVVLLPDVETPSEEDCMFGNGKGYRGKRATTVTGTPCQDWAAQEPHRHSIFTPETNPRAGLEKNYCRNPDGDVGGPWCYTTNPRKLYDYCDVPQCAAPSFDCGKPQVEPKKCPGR
Plasmin catalytic activity was determined using the chromogenic substrate, S-2366 [L-pyroglutamyl-L-prolyl-L-arginine-p-nitroaniline hydrochloride], which was obtained from DiaPharma group. The substrate was made up in deionized water followed by dilution in HBSA prior to the assay in which the final concentration was 300 micromolar (about 2.5-times Km). Purified human plasmin was obtained from Enzyme Research Laboratories, Inc. The enzyme was diluted into HBSA prior to assay in which the final concentration was 1.0 nM.

T2 sequence (P00742 235-488 limits assumed): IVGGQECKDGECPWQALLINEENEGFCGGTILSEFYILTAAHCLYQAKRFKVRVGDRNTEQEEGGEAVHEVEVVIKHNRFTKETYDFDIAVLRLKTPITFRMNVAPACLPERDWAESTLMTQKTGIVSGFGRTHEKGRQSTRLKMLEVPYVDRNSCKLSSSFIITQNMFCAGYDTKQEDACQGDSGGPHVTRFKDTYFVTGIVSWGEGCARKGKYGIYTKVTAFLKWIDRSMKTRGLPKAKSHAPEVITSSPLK
T2 sequence (P00742 41-179 partner limits assumed): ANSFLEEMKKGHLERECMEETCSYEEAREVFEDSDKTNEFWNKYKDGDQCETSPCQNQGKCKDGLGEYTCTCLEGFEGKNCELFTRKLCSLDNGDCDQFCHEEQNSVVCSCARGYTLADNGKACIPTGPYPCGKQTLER

Turning to “3(3-Amdn)Bn-3(Methsulfone)hydantoin-G-(2-Amdn)thiazole-2-MeAm”, the Ki in assay [1] is greater than 2500 nM; at α-thrombin it was greater than 2500 nM; on Factor Xa, greater than 2500 nM; at Matriptase, 100 to 250 nM; in assay [2] it was greater than 2500 nM.

Regarding `N=C(N)c1cccc(C[C@@]2(C(=O)NCC(=O)NCc3ccc(C(=N)N)s3)CCC(=O)N2)c1` [α-(3-Amdn)BnPyro-G-(2-Amdn)thiophene-5-MeAm], the Ki on α-thrombin was 500 to 2500 nM; on Factor Xa it was greater than 2500 nM; at Matriptase it was less than 100 nM; on plasmin, 500 to 2500 nM.

Consider “alpha-(3-amidinoBn)MeSO2-G-(2-Amdn)thiophene-5-MeAm”, for which the Ki is greater than 2500 nM in assay [1], 500 to 2500 nM on Factor Xa, less than 100 nM at Matriptase and greater than 2500 nM at plasmin.

`COC(=O)CCC(N)(Cc1cccc(C(=N)N)c1)C(=O)NCC(=O)NCc1ccc(C(=N)N)s1` (stereo not drawn) [(Me)E(alpha-(3-Amdn)Bn)-G-(2-Amdn)thiophene-5MeAm] showed a Ki on Matriptase of 100 to 250 nM.

Turning to “iBoc-(Me)E(R)(alpha-(3-Amdn)Bn)-G-(2-Amdn)thiophene-5MeAm”, the Ki on α-thrombin and at Matriptase was 250 to 500 nM in each case.

Turning to `N=C(N)c1cccc(CC(N)(CCC(=O)O)C(=O)NCC(=O)NCc2ccc(C(=N)N)s2)c1` (stereo not drawn) [E(alpha-(3-Amdn)Bn)-G-(2-Amdn)thiophene-5MeAm], the Ki on α-thrombin is 500 to 2500 nM; on Factor Xa, 500 to 2500 nM; at Matriptase, 100 to 250 nM; at plasmin it was 500 to 2500 nM.

In the case of `COC(=O)NC(CCC(=O)OC(C)(C)C)(Cc1cccc(C(=N)N)c1)C(=O)NCC(=O)NCc1ccc(C(=N)N)cc1` (stereo not drawn) [MeOCO-E(O-t-Butyl)(alpha-(3-Amdn)Bn)-G-(4-Amdn)BnAm], the figures for the Ki on α-thrombin, on Factor Xa and on Matriptase were 250 to 500 nM, greater than 2500 nM and 100 to 250 nM, respectively.

`COC(=O)CC[C@](Cc1cccc(C(=N)N)c1)(NC(=O)OC)C(=O)NCC(=O)NCc1nc(C(=N)N)cs1` [MeOCO-(Me)E(α-(3-Amdn)Bn)-G-(4-Amdn)thiazole-2-MeAm]: the Ki at α-thrombin is greater than 2500 nM; on Factor Xa, greater than 2500 nM; at Matriptase it was 250 to 500 nM.

As for `COC(=O)N[C@](CCC(=O)OC(C)(C)C)(Cc1cccc(C(=N)N)c1)C(=O)NCC(=O)NCc1ccc(C(=N)N)s1` [MeOCO(t-Bu)E(R)(alpha-(3-Amdn)Bn)-G-(2-Amdn)thiophene-5-MeAm], the Ki at α-thrombin was greater than 2500 nM; on Factor Xa it was 500 to 2500 nM; at Matriptase, less than 100 nM; on plasmin it was greater than 2500 nM.

Take `COC(=O)NC(CCS(C)(=O)=O)(Cc1ccnc(N)c1)C(=O)NCC(=O)NCc1ccc(C(=N)N)s1` (stereo not drawn) [N-MeOCO-(α-(3-Am)4-pyrMe)M(O2)-G-(2-Amdn)thiophene-5-MeAm]: the Ki is greater than 2500 nM on α-thrombin, 250 to 500 nM at Factor Xa and 100 to 250 nM at Matriptase.

What is called Ki is a dissociation constant, usually derived from enzyme kinetics or from competition with a known ligand.
